Experimental data from PubChem BioAssay AID192 (DTP/NCI, 2004).
Values joined by “and” are separate entries in the source; they are usually repeats but may differ in a detail not shown here. Equal entries are not always repeated. Toxic doses and inconclusive results are not listed. The calls were made as follows: active = survival T/C of 150% or more; inactive = T/C below 125% in these data.

Test system: BDF1 mice, B16 melanoma ip, median survival T/C
Assay: NCI In Vivo Anticancer Drug Screen. Data for tumor model B16 Melanoma (intraperitoneal) in B6D2F1 (BDF1) mice
Settings: endpoint: median survival time, higher = longer survival
In short: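 Mice with transplantable tumors; drug vs vehicle groups; endpoint survival or tumor size; value = T/C.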

[1] = dose: 1.56 mg/kg/injection, schedule: Q01DX009 (ip), vehicle: saline
[2] = dose: 3.12 mg/kg/injection, schedule: Q01DX009 (ip), vehicle: saline
[3] = dose: 12.5 mg/kg/injection, schedule: Q01DX009 (ip), vehicle: saline
[4] = dose: 25.0 mg/kg/injection, schedule: Q01DX009 (ip), vehicle: saline
[5] = dose: 50.0 mg/kg/injection, schedule: Q01DX009 (ip), vehicle: saline
[6] = dose: 200.0 mg/kg/injection, schedule: Q01DX009 (ip), vehicle: saline
[7] = dose: 12.5 mg/kg/injection, schedule: Q01DX009 (ip), vehicle: Klucel (hydroxypropylcellulose) (HPC)
[8] = dose: 25.0 mg/kg/injection, schedule: Q01DX009 (ip), vehicle: Klucel (hydroxypropylcellulose) (HPC)
[9] = dose: 6.25 mg/kg/injection, schedule: Q01DX009 (ip), vehicle: saline with Tween-80
[10] = dose: 12.5 mg/kg/injection, schedule: Q01DX009 (ip), vehicle: saline with Tween-80
[11] = dose: 50.0 mg/kg/injection, schedule: Q01DX009 (ip), vehicle: saline with Tween-80
[12] = dose: 100.0 mg/kg/injection, schedule: Q01DX009 (ip), vehicle: saline sonified
[13] = dose: 100.0 mg/kg/injection, schedule: Q01DX009 (ip), vehicle: saline with Tween-80
[14] = dose: 200.0 mg/kg/injection, schedule: Q01DX009 (ip), vehicle: saline sonified
[15] = dose: 18.0 mg/kg/injection, schedule: Q01DX009 (ip), vehicle: saline with Tween-80
[16] = dose: 50.0 mg/kg/injection, schedule: Q01DX009 (ip), vehicle: Klucel (hydroxypropylcellulose) (HPC)
[17] = dose: 100.0 mg/kg/injection, schedule: Q01DX009 (ip), vehicle: Klucel (hydroxypropylcellulose) (HPC)
[18] = dose: 200.0 mg/kg/injection, schedule: Q01DX009 (ip), vehicle: Klucel (hydroxypropylcellulose) (HPC)

Measured: T/C

NC1=NCN(C2OC(CO)C(O)C2O)C(=O)N1 (stereo not drawn)
inactive: [1] 92 % of control and 110 % of control | [2] 96 % of control | dose: 3.12 mg/kg/injection, schedule: Q01DX009 (ip), vehicle: suspension in saline 93 % of control | dose: 6.25 mg/kg/injection, schedule: Q01DX009 (ip), vehicle: saline 94 % of control and 110 % of control | dose: 6.25 mg/kg/injection, schedule: Q01DX009 (ip), vehicle: suspension in saline 110 % of control | [3] 110 % of control | dose: 12.5 mg/kg/injection, schedule: Q01DX009 (ip), vehicle: suspension in saline 110 % of control | [4] 94 % of control and 111 % of control | dose: 25.0 mg/kg/injection, schedule: Q01DX009 (ip), vehicle: suspension in saline 89 % of control | [5] 111 % of control | [6] 111 % of control and 119 % of control

C=C1C(=O)OC2C3OC(C)(CCC(O)C3COC(C)=O)CC(OC(=O)/C(=C/C)COC(C)=O)C12 (stereo not drawn)
inactive: dose: 0.04 mg/kg/injection, schedule: Q01DX009 (ip), vehicle: suspension in saline 111 % of control | dose: 0.09 mg/kg/injection, schedule: Q01DX009 (ip), vehicle: suspension in saline 109 % of control | dose: 0.18 mg/kg/injection, schedule: Q01DX009 (ip), vehicle: suspension in saline 107 % of control | dose: 0.37 mg/kg/injection, schedule: Q01DX009 (ip), vehicle: suspension in saline 91 % of control | dose: 6.25 mg/kg/injection, schedule: Q01DX009 (ip), vehicle: Klucel (hydroxypropylcellulose) (HPC) 91 % of control | [7] 98 % of control | [8] 105 % of control

Cc1ccc(S(=O)(=O)N2CCCC(=O)c3ccc(Cl)cc32)cc1
inactive: dose: 100.0 mg/kg/injection, schedule: Q04DX003 (ip), vehicle: Klucel (hydroxypropylcellulose) (HPC) 103 % of control | dose: 200.0 mg/kg/injection, schedule: Q04DX003 (ip), vehicle: Klucel (hydroxypropylcellulose) (HPC) 99 % of control | dose: 400.0 mg/kg/injection, schedule: Q04DX003 (ip), vehicle: Klucel (hydroxypropylcellulose) (HPC) 99 % of control

Oc1ccc(O)cc1
inactive: dose: 0.78 mg/kg/injection, schedule: Q01DX009 (ip), vehicle: saline 92 % of control | [1] 89 % of control | [2] 89 % of control | [4] 89 % of control and 117 % of control | [5] 96 % of control and 118 % of control

CCN1/C(=C/C=C/C=C\C=C\c2sc3ccc4ccccc4c3[n+]2CC)Sc2ccc3ccccc3c21
inactive: dose: 2.5 mg/kg/injection, schedule: Q01DX009 (ip), vehicle: saline with Tween-80 87 % of control | dose: 10.0 mg/kg/injection, schedule: Q01DX009 (ip), vehicle: saline with Tween-80 115 % of control | dose: 20.0 mg/kg/injection, schedule: Q01DX009 (ip), vehicle: saline with Tween-80 96 % of control

C1=Cc2ccccc2/C1=C/c1cccc(/C=C2\C=Cc3ccccc32)c1
inactive: [9] 100 % of control | [10] 86 % of control

O=C(C=C(C(F)(F)F)C(F)(F)F)c1cccc(S(=O)(=O)F)c1
inactive: dose: 1.56 mg/kg/injection, schedule: Q01DX009 (ip), vehicle: saline with Tween-80 86 % of control | dose: 3.13 mg/kg/injection, schedule: Q01DX009 (ip), vehicle: saline with Tween-80 93 % of control | [9] 89 % of control | dose: 8.0 mg/kg/injection, schedule: Q04DX003 (ip), vehicle: saline 105 % of control | dose: 12.0 mg/kg/injection, schedule: Q04DX003 (ip), vehicle: saline 105 % of control | dose: 18.0 mg/kg/injection, schedule: Q04DX003 (ip), vehicle: saline 110 % of control

Clc1ncnc2nc[nH]c12
inactive: dose: 50.0 mg/kg/injection, schedule: Q01DX009 (ip), vehicle: saline sonified 92 % of control | [11] 86 % of control | [12] 97 % of control | [13] 97 % of control | [14] 110 % of control

N=c1ccn2c(n1)OC1C(O)C(CO)OC12 (stereo not drawn)
inactive: [3] 98 % of control | [4] 96 % of control and 109 % of control | [5] 102 % of control and 108 % of control and 117 % of control | [12] 104 % of control | dose: 100.0 mg/kg/injection, schedule: Q01DX009 (ip), vehicle: saline 120 % of control and 105 % of control | [14] 104 % of control | [6] 114 % of control and 124 % of control | dose: 400.0 mg/kg/injection, schedule: Q01DX009 (ip), vehicle: saline sonified 110 % of control

O=c1cc(-c2ccccc2)[nH]c(-c2ccccc2)c1
inactive: dose: 8.0 mg/kg/injection, schedule: Q01DX009 (ip), vehicle: saline with Tween-80 95 % of control | [15] 97 % of control

CN(C)C(=O)C1(c2ccc(Cl)cc2)CCN(CCCC(=O)c2ccc(F)cc2)CC1
inactive: [7] 94 % of control | [8] 94 % of control | [16] 97 % of control

CCCCCCCCC(O)CC (stereo not drawn)
inactive: [16] 98 % of control | [17] 97 % of control | [18] 93 % of control

O=C1CN=C(c2ccccc2)c2cc([N+](=O)[O-])ccc2N1
inactive: dose: 0.02 mg/kg/injection, schedule: Q01DX009 (ip), vehicle: Klucel (hydroxypropylcellulose) (HPC) 100 % of control | dose: 0.04 mg/kg/injection, schedule: Q01DX009 (ip), vehicle: Klucel (hydroxypropylcellulose) (HPC) 103 % of control | dose: 0.09 mg/kg/injection, schedule: Q01DX009 (ip), vehicle: Klucel (hydroxypropylcellulose) (HPC) 105 % of control | dose: 0.19 mg/kg/injection, schedule: Q01DX009 (ip), vehicle: Klucel (hydroxypropylcellulose) (HPC) 101 % of control | dose: 0.39 mg/kg/injection, schedule: Q01DX009 (ip), vehicle: Klucel (hydroxypropylcellulose) (HPC) 98 % of control | dose: 3.12 mg/kg/injection, schedule: Q01DX009 (ip), vehicle: Klucel (hydroxypropylcellulose) (HPC) 86 % of control | [7] 90 % of control | [16] 99 % of control | [17] 86 % of control | dose: 400.0 mg/kg/injection, schedule: Q01DX009 (ip), vehicle: Klucel (hydroxypropylcellulose) (HPC) 86 % of control

O=C(O)CCCC1CCCCC1.[Cu+2]
inactive: [9] 100 % of control | [10] 97 % of control

NC(=S)N/N=C/c1ccc(C(F)(F)F)cn1
inactive: dose: 8.8 mg/kg/injection, schedule: Q01DX009 (ip), vehicle: Klucel (hydroxypropylcellulose) (HPC) 106 % of control | dose: 13.3 mg/kg/injection, schedule: Q01DX009 (ip), vehicle: Klucel (hydroxypropylcellulose) (HPC) 108 % of control | dose: 20.0 mg/kg/injection, schedule: Q01DX009 (ip), vehicle: Klucel (hydroxypropylcellulose) (HPC) 109 % of control

Cc1cc(NCCCCCCNc2cc(C)nc3ccc(N)cc23)c2cc(N)ccc2n1
inactive: dose: 2.25 mg/kg/injection, schedule: Q01DX009 (ip), vehicle: saline with Tween-80 104 % of control | dose: 4.5 mg/kg/injection, schedule: Q01DX009 (ip), vehicle: saline with Tween-80 102 % of control | dose: 9.0 mg/kg/injection, schedule: Q01DX009 (ip), vehicle: saline with Tween-80 104 % of control | [15] 122 % of control

CCCC[N+](CCCC)(CCCC)CCCC.Cc1ccc([SH2+])c([SH2+])c1.Cc1ccc([SH2+])c([SH2+])c1.[Fe+3]
inactive: [8] 93 % of control | dose: 25.0 mg/kg/injection, schedule: Q01DX009 (ip), vehicle: saline with Tween-80 97 % of control | [16] 99 % of control | [11] 98 % of control | [17] 93 % of control | [13] 103 % of control | [18] 93 % of control | dose: 200.0 mg/kg/injection, schedule: Q01DX009 (ip), vehicle: saline with Tween-80 98 % of control

O=C(N/N=C\c1cc(Br)cc(Br)c1O)N/N=C/c1cc(Br)cc(Br)c1O
inactive: [9] 108 % of control and 120 % of control | dose: 6.25 mg/kg/injection, schedule: Q01DX009 (ip), vehicle: sodium bicarbonate 96 % of control | [10] 104 % of control | dose: 12.5 mg/kg/injection, schedule: Q01DX009 (ip), vehicle: sodium bicarbonate 107 % of control | dose: 25.0 mg/kg/injection, schedule: Q01DX009 (ip), vehicle: sodium bicarbonate 107 % of control | dose: 50.0 mg/kg/injection, schedule: Q01DX009 (ip), vehicle: sodium bicarbonate 107 % of control | dose: 100.0 mg/kg/injection, schedule: Q01DX009 (ip), vehicle: sodium bicarbonate 118 % of control | dose: 200.0 mg/kg/injection, schedule: Q01DX009 (ip), vehicle: sodium bicarbonate 122 % of control
